Values after ≈ are worked out from the molar mass of the structure shown. Active and inactive are the calls of the source. The calls are words filed in the database; no cut-off is given here.
Columns and labels:
Assay type in all cases: functional
[1] = test system: Enterococcus faecalis; experiment: Antibacterial activity against vancomycin- resistant Enterococcus faecalis by CLSI M100-S18 method
[2] = test system: Staphylococcus epidermidis; experiment: Antibacterial activity against non-ciprofloxacin-susceptible and methicillin-susceptible Staphylococcus epidermidis by CLSI M100-S18 method
[3] = test system: Staphylococcus lugdunensis; experiment: Antibacterial activity against Staphylococcus lugdunensis by CLSI M100-S18 method
[4] = test system: Staphylococcus saprophyticus; experiment: Antibacterial activity against Staphylococcus saprophyticus by CLSI M100-S18 method
[5] = Antibacterial activity against Lancefield Streptococcus sp. 'group C' by CLSI M100-S18 method
[6] = test system: Streptococcus pneumoniae; experiment: Antibacterial activity against levofloxacin-susceptible Streptococcus pneumoniae by CLSI M100-S18 method
[7] = test system: Streptococcus pyogenes; experiment: Antibacterial activity against Streptococcus pyogenes by CLSI M100-S18 method
[8] = test system: Streptococcus anginosus; experiment: Antibacterial activity against Streptococcus anginosus by CLSI M100-S18 method
[9] = test system: Streptococcus mitis; experiment: Antibacterial activity against Streptococcus mitis by CLSI M100-S18 method
[10] = test system: Streptococcus oralis; experiment: Antibacterial activity against Streptococcus oralis by CLSI M100-S18 method
[11] = test system: Acinetobacter baumannii; experiment: Antibacterial activity against Acinetobacter baumannii by CLSI M7-A7 method
[12] = test system: Citrobacter freundii; experiment: Antibacterial activity against Citrobacter freundii by CLSI M7-A7 method
[13] = test system: Klebsiella aerogenes; experiment: Antibacterial activity against Enterobacter aerogenes by CLSI M7-A7 method
[14] = test system: Enterobacter cloacae; experiment: Antibacterial activity against Enterobacter cloacae by CLSI M7-A7 method
[15] = test system: Legionella pneumophila; experiment: Antibacterial activity against Legionella pneumophila by CLSI M7-A7 method
[16] = test system: Staphylococcus aureus; experiment: Antibacterial activity against non-ciprofloxacin-susceptible and methicillin-susceptible Staphylococcus aureus assessed as percent susceptible isolates by CLSI M100-S18 method
[17] = test system: Staphylococcus epidermidis; experiment: Antibacterial activity against ciprofloxacin-susceptible and methicillin-resistant Staphylococcus epidermidis assessed as percent susceptible isolates by CLSI M100-S18 method
[18] = test system: Staphylococcus warneri; experiment: Antibacterial activity against Staphylococcus warneri assessed as percent susceptible isolates by CLSI M100-S18 method
[19] = test system: Streptococcus pneumoniae; experiment: Antibacterial activity against levofloxacin susceptible Streptococcus pneumoniae assessed as percent susceptible isolates by CLSI M100-S18 method
[20] = test system: Streptococcus anginosus; experiment: Antibacterial activity against Streptococcus anginosus assessed as percent susceptible isolates by CLSI M100-S18 method
[21] = test system: Streptococcus equinus; experiment: Antibacterial activity against Streptococcus bovis assessed as percent susceptible isolates by CLSI M100-S18 method
[22] = test system: Streptococcus constellatus; experiment: Antibacterial activity against Streptococcus constellatus assessed as percent susceptible isolates by CLSI M100-S18 method
[23] = test system: Streptococcus intermedius; experiment: Antibacterial activity against Streptococcus intermedius assessed as percent susceptible isolates by CLSI M100-S18 method
[24] = test system: Streptococcus mitis; experiment: Antibacterial activity against Streptococcus mitis assessed as percent susceptible isolates by CLSI M100-S18 method
[25] = test system: Streptococcus oralis; experiment: Antibacterial activity against Streptococcus oralis assessed as percent susceptible isolates by CLSI M100-S18 method
[26] = test system: Streptococcus salivarius; experiment: Antibacterial activity against Streptococcus salivarius assessed as percent susceptible isolates by CLSI M100-S18 method
[27] = test system: Streptococcus sanguinis; experiment: Antibacterial activity against Streptococcus sanguinis assessed as percent susceptible isolates by CLSI M100-S18 method
[28] = test system: Acinetobacter baumannii; experiment: Antibacterial activity against Acinetobacter baumannii assessed as percent susceptible isolates by CLSI M7-A7 method
[29] = test system: Acinetobacter calcoaceticus; experiment: Antibacterial activity against Acinetobacter calcoaceticus assessed as percent susceptible isolates by CLSI M7-A7 method
[30] = test system: Acinetobacter lwoffii; experiment: Antibacterial activity against Acinetobacter lwoffii assessed as percent susceptible isolates by CLSI M7-A7 method
[31] = test system: Klebsiella aerogenes; experiment: Antibacterial activity against Enterobacter aerogenes assessed as percent susceptible isolates by CLSI M7-A7 method
[32] = test system: Haemophilus influenzae; experiment: Antibacterial activity against ciprofloxacin-susceptible Haemophilus influenzae assessed as percent susceptible isolates by CLSI M7-A7 method
[33] = test system: Moraxella catarrhalis; experiment: Antibacterial activity against Moraxella catarrhalis assessed as percent susceptible isolates by CLSI M7-A7 method
[34] = test system: Proteus mirabilis; experiment: Antibacterial activity against Proteus mirabilis assessed as percent susceptible isolates by CLSI M7-A7 method
[35] = test system: Proteus vulgaris; experiment: Antibacterial activity against Proteus vulgaris assessed as percent susceptible isolates by CLSI M7-A7 method
[36] = test system: Pseudomonas aeruginosa; experiment: Antibacterial activity against ciprofloxacin-susceptible Pseudomonas aeruginosa assessed as percent susceptible isolates by CLSI M7-A7 method
[37] = test system: Pseudomonas aeruginosa; experiment: Antibacterial activity against non-ciprofloxacin-susceptible Pseudomonas aeruginosa assessed as percent susceptible isolates by CLSI M7-A7 method
[38] = test system: Stenotrophomonas maltophilia; experiment: Antibacterial activity against non-levofloxacin susceptible Stenotrophomonas maltophilia assessed as percent susceptible isolates by CLSI M7-A7 method
[39] = test system: Stenotrophomonas maltophilia; experiment: Antibacterial activity against levofloxacin-susceptible Stenotrophomonas maltophilia assessed as assessed as percent susceptible isolates by CLSI M7-A7 method

With `NC[C@H]1O[C@H](O[C@H]2[C@H](O)[C@@H](O[C@H]3O[C@H](CO)[C@@H](O)[C@H](N)[C@H]3O)[C@H](N)C[C@@H]2N)[C@H](N)C[C@@H]1O` [TOBRAMYCIN] the MIC50 [1] was 16 µg/mL (≈ 34.2 µM), the MIC90 [1] was > 128 µg/mL and the MIC50 [2] was 2 µg/mL (≈ 4.28 µM). It also gave an MIC50 [3] of 0.12 µg/mL (≈ 0.257 µM), an MIC90 [3] of 32 µg/mL (≈ 68.4 µM) and an MIC50 [4] of 0.015 µg/mL (≈ 0.0321 µM). For the same molecule, the MIC90 [4] was 0.06 µg/mL (≈ 0.128 µM), the MIC50 [5] was 0.06 µg/mL (≈ 0.128 µM) and the MIC90 [5] was > 8 µg/mL. It also gave an MIC50 [6] of 8 µg/mL (≈ 17.1 µM), an MIC90 [6] of 16 µg/mL (≈ 34.2 µM) and an MIC50 [7] of 16 µg/mL (≈ 34.2 µM). It also gave an MIC90 [7] of 16 µg/mL (≈ 34.2 µM), an MIC50 [8] of 16 µg/mL (≈ 34.2 µM) and an MIC90 [8] of 32 µg/mL (≈ 68.4 µM). For the same molecule, the MIC50 [9] was 0.06 µg/mL (≈ 0.128 µM), the MIC90 [9] was > 8 µg/mL and the MIC50 [10] was 0.06 µg/mL (≈ 0.128 µM). The MIC90 [10] was > 8 µg/mL, the MIC50 [11] was 4 µg/mL (≈ 8.56 µM) and the MIC90 [11] was > 64 µg/mL. The MIC50 [12] was 0.25 µg/mL (≈ 0.535 µM), the MIC90 [12] was 0.5 µg/mL (≈ 1.07 µM) and the MIC50 [13] was 0.5 µg/mL (≈ 1.07 µM). The MIC90 [13] was 8 µg/mL (≈ 17.1 µM), the MIC50 [14] was 0.25 µg/mL (≈ 0.535 µM) and the MIC90 [14] was 1 µg/mL (≈ 2.14 µM). It also gave an MIC50 [15] of 0.12 µg/mL (≈ 0.257 µM), an MIC90 [15] of 1 µg/mL (≈ 2.14 µM) and an Activity [16] of 27.3%. The Activity [17] was 33.3%, the Activity [18] was 34% and the Activity [19] was “inactive”. For the same molecule, the Activity [20] was 95.5%, the Activity [21] was 95.5% and the Activity [22] was 95.5%. It also gave an Activity [23] of 95.5%, an Activity [24] of 95.5% and an Activity [25] of 95.5%. The Activity [26] was 95.5%, the Activity [27] was 95.5% and the Activity [28] was 60.4%. For the same molecule, the Activity [29] was 92.6%, the Activity [30] was 94% and the Activity [31] was 100%. For the same molecule, the Activity [32] was “inactive”, the Activity [33] was 100% and the Activity [34] was 100%. The Activity [35] was 100%, the Activity [36] was 95.2% and the Activity [37] was 44.8%. The Activity [38] was 0% and the Activity [39] was 1.9%.

Source: ChEMBL document CHEMBL1649565, “Besifloxacin, a novel fluoroquinolone, has broad-spectrum in vitro activity against aerobic and anaerobic bacteria” (Antimicrob Agents Chemother, 2009)
